Literature values in patent publication US20260272852A1, “COAGULATION PATHWAY AND NICOTINAMIDE-ADENINE DINUCLEOTIDE PATHWAY MODULATING COMPOSITIONS AND METHODS OF THEIR USE” (L'OREAL, priority 2021, published 2026).

Legend:
[1] = topical 4% niacinamide treatment
[2] = tested on: hyperpigmentation spots, fine lines, and wrinkles; conditions: moisturizer containing 5% niacinamide, half of face, 12 weeks
[3] = tested on: suction induced petechia formation; conditions: 0.5% vitamin K1 cream twice daily for one week, ten healthy individuals
[4] = tested on: 585-nm pulsed dye laser-induced purpuras

## NC(=O)c1cccnc1 [niacinamide]
[1]
  Treated patients with good-to-excellent results: 44%
[2]
  Hyperpigmentation spots, fine lines, and wrinkles, treated side compared to control side: significant improvements

## CC1=C(C/C=C(\C)CCC[C@H](C)CCC[C@H](C)CCCC(C)C)C(=O)c2ccccc2C1=O [vitamin K1, phylloquinone]
[3]
  Influence on suction induced petechia formation: no influence

## vitamin K
[4]
  Effect of pretreatment on 585-nm pulsed dye laser-induced purpuras: no effect
